Experimental data from ChEMBL document CHEMBL1145498, “A systematic interaction map of validated kinase inhibitors with Ser/Thr kinases” (Proc Natl Acad Sci U S A, 2007).

Key:
[1] = target: Calcium/calmodulin-dependent protein kinase kinase 2 (Homo sapiens, UniProt Q96RR4)
[2] = target: Death-associated protein kinase 3 (Homo sapiens) (UniProt O43293)
[3] = target: Ribosomal protein S6 kinase alpha-3 (Homo sapiens) (UniProt P51812)
[4] = target: Serine/threonine-protein kinase OSR1 (Homo sapiens) (UniProt O95747)
[5] = target: Tyrosine-protein kinase JAK1 (Homo sapiens) (UniProt P23458)
[6] = target: STE20-like serine/threonine-protein kinase (Homo sapiens) (UniProt Q9H2G2)
[7] = target: T1, Lymphokine-activated killer T-cell-originated protein kinase (Homo sapiens) (UniProt Q96KB5)
T1 sequence (whole entry): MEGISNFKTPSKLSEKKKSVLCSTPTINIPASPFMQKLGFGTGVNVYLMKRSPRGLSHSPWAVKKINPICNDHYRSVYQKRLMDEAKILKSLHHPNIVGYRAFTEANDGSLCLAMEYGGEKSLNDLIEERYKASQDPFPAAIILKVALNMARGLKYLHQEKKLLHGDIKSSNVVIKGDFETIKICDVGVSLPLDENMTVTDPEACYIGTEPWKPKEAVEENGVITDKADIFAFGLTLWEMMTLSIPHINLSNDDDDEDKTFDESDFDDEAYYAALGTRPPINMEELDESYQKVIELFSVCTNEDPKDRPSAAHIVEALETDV

[8] = target: Calcium/calmodulin-dependent protein kinase type 1G (Homo sapiens) (UniProt Q96NX5)
[9] = target: Serine/threonine-protein kinase Nek6 (Homo sapiens) (UniProt Q9HC98)
[10] = target: T2, Serine/threonine-protein kinase VRK3 (Homo sapiens) (UniProt Q8IV63)
T2 sequence (whole entry): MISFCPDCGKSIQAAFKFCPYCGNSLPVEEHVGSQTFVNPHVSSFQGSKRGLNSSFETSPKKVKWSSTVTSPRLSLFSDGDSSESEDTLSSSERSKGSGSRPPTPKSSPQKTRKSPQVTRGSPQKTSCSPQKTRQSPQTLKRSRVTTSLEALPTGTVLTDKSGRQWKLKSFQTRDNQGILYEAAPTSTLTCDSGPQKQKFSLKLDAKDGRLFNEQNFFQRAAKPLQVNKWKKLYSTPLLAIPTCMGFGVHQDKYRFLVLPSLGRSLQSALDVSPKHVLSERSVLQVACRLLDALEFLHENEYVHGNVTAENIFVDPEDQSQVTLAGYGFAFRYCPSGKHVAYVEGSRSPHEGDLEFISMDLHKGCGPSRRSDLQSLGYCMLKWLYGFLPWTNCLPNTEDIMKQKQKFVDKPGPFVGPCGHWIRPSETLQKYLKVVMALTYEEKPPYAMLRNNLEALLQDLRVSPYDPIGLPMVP

[11] = target: Serine/threonine-protein kinase Chk2 (Homo sapiens, UniProt O96017)
[12] = target: Serine/threonine-protein kinase pim-2 (Homo sapiens, UniProt Q9P1W9)
[13] = target: Dual specificity protein kinase CLK3 (Homo sapiens) (UniProt P49761)
[14] = target: Cyclin-dependent kinase 6 (Homo sapiens) (UniProt Q00534)
[15] = target: Serine/threonine-protein kinase pim-3 (Homo sapiens) (UniProt Q86V86)
[16] = target: T3, Serine/threonine-protein kinase PLK4 (Homo sapiens) (UniProt O00444)
T3 sequence (whole entry): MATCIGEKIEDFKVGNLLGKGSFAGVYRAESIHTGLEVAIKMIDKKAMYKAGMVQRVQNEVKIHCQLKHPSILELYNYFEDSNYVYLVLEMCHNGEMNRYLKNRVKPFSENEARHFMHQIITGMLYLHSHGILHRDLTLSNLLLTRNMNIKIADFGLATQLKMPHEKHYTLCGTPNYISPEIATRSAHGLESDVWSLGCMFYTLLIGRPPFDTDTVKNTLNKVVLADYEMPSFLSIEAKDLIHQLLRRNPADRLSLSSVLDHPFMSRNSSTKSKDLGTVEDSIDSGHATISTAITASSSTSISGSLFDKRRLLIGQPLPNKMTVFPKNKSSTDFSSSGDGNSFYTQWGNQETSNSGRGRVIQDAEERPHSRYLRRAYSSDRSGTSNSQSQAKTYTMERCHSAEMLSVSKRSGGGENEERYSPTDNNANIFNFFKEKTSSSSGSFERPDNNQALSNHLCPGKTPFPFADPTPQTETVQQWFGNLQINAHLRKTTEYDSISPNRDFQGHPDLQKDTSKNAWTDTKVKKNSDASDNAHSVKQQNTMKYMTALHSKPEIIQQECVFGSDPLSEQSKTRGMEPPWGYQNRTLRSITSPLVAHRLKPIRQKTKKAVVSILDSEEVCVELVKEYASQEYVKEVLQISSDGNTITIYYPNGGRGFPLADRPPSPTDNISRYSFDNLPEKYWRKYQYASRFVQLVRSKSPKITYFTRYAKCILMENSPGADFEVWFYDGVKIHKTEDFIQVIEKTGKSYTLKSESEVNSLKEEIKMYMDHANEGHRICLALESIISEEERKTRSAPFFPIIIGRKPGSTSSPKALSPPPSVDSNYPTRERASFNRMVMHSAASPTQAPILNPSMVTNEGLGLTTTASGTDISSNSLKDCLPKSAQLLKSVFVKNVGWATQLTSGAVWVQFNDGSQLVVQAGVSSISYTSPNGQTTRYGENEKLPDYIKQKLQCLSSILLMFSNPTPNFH

[17] = target: Mitogen-activated protein kinase 11 (Homo sapiens, UniProt Q15759)
[18] = target: Casein kinase I isoform gamma-1 (Homo sapiens) (UniProt Q9HCP0)
[19] = target: Mitogen-activated protein kinase 3 (Homo sapiens, UniProt P27361)
[20] = target: Dual specificity protein kinase CLK2 (Homo sapiens) (UniProt P49760)
[21] = target: cAMP-dependent protein kinase catalytic subunit alpha (Homo sapiens) (UniProt P17612)

Chain of Mitogen-activated protein kinase 3 (P27361 whole entry): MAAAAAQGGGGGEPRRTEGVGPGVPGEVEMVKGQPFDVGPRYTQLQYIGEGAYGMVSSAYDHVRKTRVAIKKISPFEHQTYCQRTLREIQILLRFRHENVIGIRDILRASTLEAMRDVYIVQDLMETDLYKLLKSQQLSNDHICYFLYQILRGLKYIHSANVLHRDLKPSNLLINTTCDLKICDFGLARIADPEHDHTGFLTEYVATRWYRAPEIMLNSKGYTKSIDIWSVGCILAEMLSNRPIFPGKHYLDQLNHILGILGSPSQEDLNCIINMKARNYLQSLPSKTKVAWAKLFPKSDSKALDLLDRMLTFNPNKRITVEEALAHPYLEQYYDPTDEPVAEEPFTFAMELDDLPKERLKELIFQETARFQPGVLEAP
Chain of Serine/threonine-protein kinase pim-2 (Q9P1W9 whole entry, looked up): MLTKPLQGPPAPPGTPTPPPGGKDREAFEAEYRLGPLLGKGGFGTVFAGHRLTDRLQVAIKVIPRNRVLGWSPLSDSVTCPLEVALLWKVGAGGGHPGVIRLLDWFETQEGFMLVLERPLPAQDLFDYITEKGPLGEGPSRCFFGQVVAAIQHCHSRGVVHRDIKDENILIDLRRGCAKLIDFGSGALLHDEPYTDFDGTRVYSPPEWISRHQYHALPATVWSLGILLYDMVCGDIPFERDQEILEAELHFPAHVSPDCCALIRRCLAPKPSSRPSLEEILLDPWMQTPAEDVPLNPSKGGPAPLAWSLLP
Chain of Serine/threonine-protein kinase Nek6 (Homo sapiens) (Q9HC98 whole entry): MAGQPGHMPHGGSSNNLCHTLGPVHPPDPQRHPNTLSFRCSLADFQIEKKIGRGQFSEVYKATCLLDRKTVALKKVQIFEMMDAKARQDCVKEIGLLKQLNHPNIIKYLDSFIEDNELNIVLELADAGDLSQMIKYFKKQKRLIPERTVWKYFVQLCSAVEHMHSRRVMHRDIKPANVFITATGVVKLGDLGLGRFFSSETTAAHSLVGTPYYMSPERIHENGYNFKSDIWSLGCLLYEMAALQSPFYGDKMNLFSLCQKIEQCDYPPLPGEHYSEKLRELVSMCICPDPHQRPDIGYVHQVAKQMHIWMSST
Chain of Serine/threonine-protein kinase Chk2 (O96017 whole entry): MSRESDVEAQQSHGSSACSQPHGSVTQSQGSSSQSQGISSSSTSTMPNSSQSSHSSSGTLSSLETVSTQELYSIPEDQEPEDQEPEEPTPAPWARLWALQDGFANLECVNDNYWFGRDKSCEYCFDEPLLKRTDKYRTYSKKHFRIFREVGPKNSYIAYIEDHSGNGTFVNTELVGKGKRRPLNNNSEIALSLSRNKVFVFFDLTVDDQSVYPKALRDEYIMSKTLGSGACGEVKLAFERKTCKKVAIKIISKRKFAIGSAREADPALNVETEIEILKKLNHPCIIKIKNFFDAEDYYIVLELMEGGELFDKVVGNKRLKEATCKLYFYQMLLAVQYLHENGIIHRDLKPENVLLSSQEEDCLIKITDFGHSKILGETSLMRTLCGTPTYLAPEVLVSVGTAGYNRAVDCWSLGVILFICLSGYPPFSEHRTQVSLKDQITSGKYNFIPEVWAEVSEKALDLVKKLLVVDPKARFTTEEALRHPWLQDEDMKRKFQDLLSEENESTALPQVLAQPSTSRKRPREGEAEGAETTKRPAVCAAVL
Chain of Cyclin-dependent kinase 6 (Homo sapiens) (Q00534 whole entry): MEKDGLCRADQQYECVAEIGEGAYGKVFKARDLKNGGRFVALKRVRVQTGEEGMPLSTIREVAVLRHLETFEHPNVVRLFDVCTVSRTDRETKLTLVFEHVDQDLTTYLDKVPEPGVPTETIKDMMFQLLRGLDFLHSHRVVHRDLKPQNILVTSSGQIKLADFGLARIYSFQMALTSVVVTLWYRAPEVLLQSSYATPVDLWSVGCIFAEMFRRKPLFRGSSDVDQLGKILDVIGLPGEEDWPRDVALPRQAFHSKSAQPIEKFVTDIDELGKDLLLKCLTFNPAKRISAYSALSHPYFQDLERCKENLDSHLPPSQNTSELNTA
Chain of Ribosomal protein S6 kinase alpha-3 (Homo sapiens) (P51812 whole entry): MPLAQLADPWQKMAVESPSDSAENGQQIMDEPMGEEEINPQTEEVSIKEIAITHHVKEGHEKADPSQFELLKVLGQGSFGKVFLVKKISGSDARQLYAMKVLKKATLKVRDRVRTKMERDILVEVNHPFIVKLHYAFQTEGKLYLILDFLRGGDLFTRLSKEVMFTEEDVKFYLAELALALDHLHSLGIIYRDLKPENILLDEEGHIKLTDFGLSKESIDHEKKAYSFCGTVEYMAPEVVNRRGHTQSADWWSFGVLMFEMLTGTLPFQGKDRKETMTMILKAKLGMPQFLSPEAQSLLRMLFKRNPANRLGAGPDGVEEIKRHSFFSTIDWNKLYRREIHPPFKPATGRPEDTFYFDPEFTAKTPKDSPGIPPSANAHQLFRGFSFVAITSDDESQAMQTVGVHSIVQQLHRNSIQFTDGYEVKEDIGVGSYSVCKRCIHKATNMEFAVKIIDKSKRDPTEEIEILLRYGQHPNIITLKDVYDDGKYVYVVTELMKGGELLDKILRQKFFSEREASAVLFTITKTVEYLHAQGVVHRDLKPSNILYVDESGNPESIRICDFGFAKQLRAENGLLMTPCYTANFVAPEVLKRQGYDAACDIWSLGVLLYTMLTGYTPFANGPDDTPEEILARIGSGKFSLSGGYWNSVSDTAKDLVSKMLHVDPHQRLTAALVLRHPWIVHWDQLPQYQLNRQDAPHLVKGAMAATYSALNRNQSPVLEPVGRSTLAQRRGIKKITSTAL
Chain of Dual specificity protein kinase CLK3 (Homo sapiens) (P49761 whole entry, looked up): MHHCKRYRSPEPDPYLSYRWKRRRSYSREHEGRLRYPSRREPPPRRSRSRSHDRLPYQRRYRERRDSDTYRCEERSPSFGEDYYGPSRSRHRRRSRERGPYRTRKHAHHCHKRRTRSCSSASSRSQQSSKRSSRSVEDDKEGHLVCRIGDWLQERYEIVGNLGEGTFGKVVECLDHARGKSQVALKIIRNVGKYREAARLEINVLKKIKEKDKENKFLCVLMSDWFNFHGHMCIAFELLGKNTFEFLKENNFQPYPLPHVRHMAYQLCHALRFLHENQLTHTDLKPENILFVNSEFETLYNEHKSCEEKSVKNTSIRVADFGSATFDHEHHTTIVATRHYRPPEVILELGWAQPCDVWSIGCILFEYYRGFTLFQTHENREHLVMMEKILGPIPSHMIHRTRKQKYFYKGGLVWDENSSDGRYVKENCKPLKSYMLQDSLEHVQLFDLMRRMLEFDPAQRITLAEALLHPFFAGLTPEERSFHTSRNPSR
Chain of Tyrosine-protein kinase JAK1 (Homo sapiens) (P23458 whole entry): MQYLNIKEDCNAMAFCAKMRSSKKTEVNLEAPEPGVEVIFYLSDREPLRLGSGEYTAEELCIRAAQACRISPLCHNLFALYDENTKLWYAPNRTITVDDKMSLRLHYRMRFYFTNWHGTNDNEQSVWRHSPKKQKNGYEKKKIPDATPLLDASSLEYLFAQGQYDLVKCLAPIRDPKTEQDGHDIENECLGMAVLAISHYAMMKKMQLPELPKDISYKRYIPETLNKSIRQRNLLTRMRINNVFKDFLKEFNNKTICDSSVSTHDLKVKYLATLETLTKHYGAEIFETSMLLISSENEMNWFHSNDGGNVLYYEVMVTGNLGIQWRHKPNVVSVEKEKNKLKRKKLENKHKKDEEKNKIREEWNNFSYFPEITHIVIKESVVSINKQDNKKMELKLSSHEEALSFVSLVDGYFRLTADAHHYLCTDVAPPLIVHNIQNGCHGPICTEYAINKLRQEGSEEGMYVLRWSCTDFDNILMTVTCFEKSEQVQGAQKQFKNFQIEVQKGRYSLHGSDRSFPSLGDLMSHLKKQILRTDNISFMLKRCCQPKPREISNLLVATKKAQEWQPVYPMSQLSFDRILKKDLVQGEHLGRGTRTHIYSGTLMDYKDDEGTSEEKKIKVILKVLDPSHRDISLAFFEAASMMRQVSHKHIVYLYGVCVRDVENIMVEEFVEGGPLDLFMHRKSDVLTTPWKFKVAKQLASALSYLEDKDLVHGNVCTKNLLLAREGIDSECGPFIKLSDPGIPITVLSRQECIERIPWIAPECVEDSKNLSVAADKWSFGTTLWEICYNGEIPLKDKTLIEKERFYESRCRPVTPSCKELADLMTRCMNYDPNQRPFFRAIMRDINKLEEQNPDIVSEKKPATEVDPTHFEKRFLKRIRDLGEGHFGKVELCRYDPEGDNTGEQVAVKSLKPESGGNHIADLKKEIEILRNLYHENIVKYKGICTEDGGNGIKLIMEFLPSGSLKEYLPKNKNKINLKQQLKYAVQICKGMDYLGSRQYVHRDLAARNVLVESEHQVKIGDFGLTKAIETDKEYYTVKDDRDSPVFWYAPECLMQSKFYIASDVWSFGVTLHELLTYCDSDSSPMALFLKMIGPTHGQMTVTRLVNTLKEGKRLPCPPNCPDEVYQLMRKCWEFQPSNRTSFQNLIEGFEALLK
Chain of Dual specificity protein kinase CLK2 (Homo sapiens) (P49760 whole entry, looked up): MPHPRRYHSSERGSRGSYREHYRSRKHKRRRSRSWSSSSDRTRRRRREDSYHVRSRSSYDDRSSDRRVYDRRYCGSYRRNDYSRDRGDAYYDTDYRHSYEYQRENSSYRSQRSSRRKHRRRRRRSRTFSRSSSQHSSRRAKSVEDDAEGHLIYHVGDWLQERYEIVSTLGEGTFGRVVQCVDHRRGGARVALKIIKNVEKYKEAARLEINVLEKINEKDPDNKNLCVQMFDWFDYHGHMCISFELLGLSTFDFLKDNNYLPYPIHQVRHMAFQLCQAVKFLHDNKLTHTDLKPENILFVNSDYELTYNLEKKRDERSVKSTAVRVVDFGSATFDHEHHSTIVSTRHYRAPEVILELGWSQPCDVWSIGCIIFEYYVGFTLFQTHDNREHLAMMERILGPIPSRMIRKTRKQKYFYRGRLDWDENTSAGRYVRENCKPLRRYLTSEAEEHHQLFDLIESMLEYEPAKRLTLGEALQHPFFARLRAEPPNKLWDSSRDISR

Compound | ΔTm [1] [°C] | ΔTm [2] [°C] | ΔTm [3] [°C] | ΔTm [4] [°C] | ΔTm [5] [°C] | ΔTm [6] [°C] | ΔTm [7] [°C] | ΔTm [8] [°C] | ΔTm [9] [°C] | ΔTm [10] [°C] | ΔTm [11] [°C] | ΔTm [12] [°C] | ΔTm [13] [°C] | ΔTm [14] [°C] | ΔTm [15] [°C] | ΔTm [16] [°C] | ΔTm [17] [°C] | ΔTm [18] [°C] | ΔTm [19] [°C] | ΔTm [20] [°C] | also measured
CC(C)(C)n1nc(-c2ccc(Cl)cc2)c2c(N)ncnc21 | 1 | -1.1 | 0.4 | 1.2 | 0.3 | 3.6 | 0.7 | 0 | 0.2 | -0.2 | 0.4 | 0.2 | 0.7 | -0.4 | 0.7 | 4.1 | 4.6 | 1 | 0 | 1.4 | ΔTm [21]: 2.3 °C
O=C1Nc2ccccc2/C1=C/c1cnc[nH]1 | 3.1 | 1.6 | 1 | 2.4 | 6.9 | 3.3 | 0.1 | 1.2 | 0 | 0.1 | 3 | 1.9 | 1 | 4.4 | 3.3 | 5.8 | 0.4 | 1.2 | 2.1 | 2.5 | ΔTm [21]: 1.6 °C
COc1nccc(-c2c(-c3ccc(F)cc3)ncn2[C@H]2CC[C@H](O)CC2)n1 | -0.6 | 0.4 | 0.2 | 0.1 | 0.8 | 1.9 | 0.7 | 0.2 | -0.3 | -0.1 | 1.2 | 0.5 | 0.1 | 0.1 | -0.2 | 0.1 | 6.6 | 0.9 | 0 | 0.8 | ΔTm [21]: -0.8 °C
c1ccc(-c2n[nH]c3c2oc2ccccc23)cc1 | 2.5 | -0.9 | 1.1 | 0.8 | 5.2 | 1.6 | -0.2 | 0.3 | 0 | 1.8 | 0.7 | 1.1 | 0 | 0.6 | -1.3 | 1.2 | 1.2 | 0.8 | 0.3 | 1.7 | ΔTm [21]: 2.8 °C
C[C@@H]1C[C@H]2O[C@@H]2/C=C\C=C\C(=O)Cc2c(Cl)c(O)cc(O)c2C(=O)O1 [RADICICOL] | -0.1 | -0.3 | 0.9 | 1.4 | -0.2 | 0.4 | 0.2 | 0.6 | -0.6 | -0.4 | 1.6 | 0.1 | 0 | -0.5 | 0.5 | 0.5 | 0.7 | 0.3 | 0 | 0.1 | ΔTm [21]: 0.7 °C
COc1ccc(CNc2nc(N(CCO)CCO)nc3c2ncn3C(C)C)cc1 | 1.2 | 0.7 | 1.7 | 0.4 | 0.2 | 0.3 | 0.7 | 0.6 | 0.3 | 0.4 | 0.9 | 0.3 | 0.6 | -0.1 | 0.2 | 0.5 | 1.2 | 1.8 | 0.2 | 2.4 | ΔTm [21]: 0.5 °C
Nc1cccc(-c2cc3c(Oc4cccc(O)c4)ncnc3[nH]2)c1 | 1.4 | 0.4 | 5.7 | 1.7 | 4.3 | 6.7 | 0.6 | 1 | -1.3 | 2.2 | 1.7 | 0.8 | 0.9 | 0.9 | 0.3 | 0.8 | 5.4 | 1.5 | 0 | 0.4 | ΔTm [21]: -0.6 °C
O=c1c2ccccc2[nH]c(=S)n1CCN1CCC(=C(c2ccc(F)cc2)c2ccc(F)cc2)CC1 [DIACYLGLYCEROL KINASE INHIBITOR II] | 1.8 | 1.6 | 0.3 | 2.4 | 0.6 | 2.3 | 0.1 | 0.1 | 0.1 | -0.6 | 1.6 | 1.4 | 0.2 | -0.4 | 0.9 | 0.8 | 1.2 | -0.2 | 0.2 | 0.3 | ΔTm [21]: 0.8 °C
CCOc1cc2ncnc(Nc3cccc(Br)c3)c2cc1OCC | 2.7 | 2.7 | 0.2 | 1 | 2.7 | 7.9 | 0.1 | 0.4 | 0.7 | 0.1 | 2.6 | 1.1 | 0.3 | 0.2 | 2.7 | 3.8 | 2.2 | 1.2 | 0.7 | 1 | ΔTm [21]: 0.8 °C
O=C1NC(=O)C(c2cn(CCCn3ccnc3)c3ccccc23)=C1Nc1ccccc1 | 3.8 | 1.3 | 6.3 | 0.2 | 1.1 | 4.8 | 0.8 | 1 | -0.1 | 1.6 | 1.5 | 1.5 | 3 | 0.9 | -0.3 | 0.8 | 0 | 0.6 | -0.1 | 4.3 | ΔTm [21]: 0.3 °C
